Laboratory results from patent publication US4971967A, “Quinolinecarboxylic acid derivatives, antibacterial compositions and use” (Kanebo Ltd, priority 1989, dated 1990).
Values after ≈ are worked out from the molar mass of the structure shown.

What was measured:
Enterobacter cloacae 963 = test: Antibacterial activity (MIC), Enterobacter cloacae 963; format: cell-based; conditions: Enterobacter cloacae, 963, Enterobacter cloacae 963, Gram -; read-out: Minimum inhibitory concentration (MIC)
Protocol: (§1) The compounds of the present invention (A, C, D, E, F, G, H, I, J, L, O and P) and the known compound (X) as reference were dissolved in 0.1 N aqueous sodium hydroxide to prepare a solution of 5000 μg/ml in concentration. The compounds of the present invention (B, K, M and N) and the known compound (Y) were dissolved in sterilized distilled water to prepare a solution of 5000 μg/ml in concentration. Each solution was diluted with sterilized distilled water to prepare a standard solution with a concentration of each test compound: 1000 μg/ml. The test was carried out by a method as appointed by Japan Society of Chemotherapy [cf. Chemotherapy, 29, 76-79 (1981)(TOKYO)].

[1] = tested on: Pseudomonas aeruginosa E-2; test: Effect on treatment of general infectious disease, P. aeruginosa E-2 (Experiment 4); format: in vivo, ddY male mice infected with Pseudomonas aeruginosa; conditions: E2, 168 h, oral, 1 h after i.p. infection, 3.4×10^4 CFU/mouse, survival after one week
Protocol: (§2) The test microorganisms were subjected to standing culture in Trypto-Soya Agar "Nissui" (made by Nissui Seiyaku K.K., Japan) at 37° C. for 16 to 18 hours. The culture was then diluted with PBS (Dulbecco's phosphate buffered saline) and mixed with an equivalent amount of 10% (w/v) Mucin (BACTO MUCIN BACTERIOLOGICAL, made by Difco Co.) to prepare a microorganism solution. The thus prepared microorganism solution (0.5 ml each) was intraperitoneally inoculated to ddY male mice (5 weeks age, weighing 25-28 g, 5 mice in each group), to infect the animals. One hour after the infection, the compound (A) or (J) of the present invention or the known compound (X) suspended in 1% (w/v) aqueous gum arabic or the known compound (Y) dissolved in sterilized distilled water was orally adiministered to mice.
(§3) The mice were daily observed for one week, and from the survival number of mice after one week, the 50% effective dose (ED50) was calculated by Weil method.
Pseudomonas aeruginosa E-2 (3.4×10^4 CFU/mouse)
(§4) The procedure of Experiment 3 was repeated except that ddY male mice weighing 24 to 28 g were employed.

[2] = tested on: Pseudomonas aeruginosa IFO 3445; test: Antibacterial activity (MIC), P. aeruginosa IFO 3445; format: cell-based; conditions: Pseudomonas aeruginosa, IFO3445, Pseudomonas aeruginosa IFO 3445, Gram -; read-out: Minimum inhibitory concentration (MIC)
Protocol: as §1

[3] = tested on: Citrobacter freundii NIHJ 10018-68; test: Antibacterial activity (MIC), Citrobacter freundii NIHJ 10018-68; format: cell-based; conditions: Citrobacter freundii, NIHJ10018, Citrobacter freundii NIHJ 10018-68, Gram -; read-out: Minimum inhibitory concentration (MIC)
Protocol: as §1

[4] = tested on: Pseudomonas aeruginosa NCTC 10490; test: Antibacterial activity (MIC), P. aeruginosa NCTC 10490; format: cell-based; conditions: Pseudomonas aeruginosa, NCTC10490, Pseudomonas aeruginosa NCTC 10490, Gram -; read-out: Minimum inhibitory concentration (MIC)
Protocol: as §1

Escherichia coli KC-14 = test: Antibacterial activity (MIC), E. coli KC-14; format: cell-based; conditions: KC14; Escherichia coli KC-14, Gram -; read-out: Minimum inhibitory concentration (MIC)
Protocol: as §1

[5] = tested on: Staphylococcus aureus IID 803; test: Effect on treatment of general infectious disease, S. aureus IID 803 (Experiment 4); format: in vivo, ddY male mice infected with Staphylococcus aureus; conditions: IID803, 168 h, oral, 1 h after i.p. infection, 2.1×10^7 CFU/mouse, survival after one week
Protocol: as §2, §3
Staphylococcus aureus IID 803 (2.1×10^7 CFU/mouse)
as §4

[6] = tested on: Staphylococcus aureus IID 803; test: Antibacterial activity (MIC), S. aureus IID 803; format: cell-based; conditions: IID803; Staphylococcus aureus IID 803, Gram +; read-out: Minimum inhibitory concentration (MIC)
Protocol: as §1

[7] = tested on: Acinetobacter calcoaceticus AC 54; test: Antibacterial activity (MIC), Acinetobacter calcoaceticus AC 54; format: cell-based; conditions: AC54; Acinetobacter calcoaceticus AC 54, Gram -; read-out: Minimum inhibitory concentration (MIC)
Protocol: as §1

[8] = tested on: Micrococcus luteus ATCC 9341; test: Antibacterial activity (MIC), Micrococcus luteus ATCC 9341; format: cell-based; conditions: ATCC9341; Micrococcus luteus ATCC 9341, Gram +; read-out: Minimum inhibitory concentration (MIC)
Protocol: as §1

[9] = tested on: Bacillus subtilis ATCC 6633; test: Antibacterial activity (MIC), Bacillus subtilis ATCC 6633; format: cell-based; conditions: Bacillus subtilis, ATCC6633, Bacillus subtilis ATCC 6633, Gram +; read-out: Minimum inhibitory concentration (MIC)
Protocol: as §1

Shigella sonnei EW-33 = test: Antibacterial activity (MIC), Shigella sonnei EW-33; format: cell-based; conditions: Shigella sonnei, EW33, Shigella sonnei EW-33, Gram -; read-out: Minimum inhibitory concentration (MIC)
Protocol: as §1

[10] = tested on: Staphylococcus aureus FDA 209P JC-1; test: Antibacterial activity (MIC), S. aureus FDA 209P JC-1; format: cell-based; conditions: FDA209P; Staphylococcus aureus FDA 209P JC-1, Gram +; read-out: Minimum inhibitory concentration (MIC)
Protocol: as §1

[11] = tested on: Staphylococcus epidermidis IAM-1296; test: Antibacterial activity (MIC), S. epidermidis IAM-1296; format: cell-based; conditions: Staphylococcus epidermidis, IAM1296, Staphylococcus epidermidis IAM-1296, Gram +; read-out: Minimum inhibitory concentration (MIC)
Protocol: as §1

[12] = tested on: Serratia marcescens IAM 1184; test: Antibacterial activity (MIC), Serratia marcescens IAM 1184; format: cell-based; conditions: Serratia marcescens, IAM1184, Serratia marcescens IAM 1184, Gram -; read-out: Minimum inhibitory concentration (MIC)
Protocol: as §1

[13] = tested on: Pseudomonas aeruginosa E-2; test: Antibacterial activity (MIC), P. aeruginosa E-2; format: cell-based; conditions: E2; Pseudomonas aeruginosa E-2, Gram -; read-out: Minimum inhibitory concentration (MIC)
Protocol: as §1

[14] = tested on: Escherichia coli NIHJ JC-2; test: Antibacterial activity (MIC), E. coli NIHJ JC-2; format: cell-based; conditions: NIHJJC2; Escherichia coli NIHJ JC-2, Gram -; read-out: Minimum inhibitory concentration (MIC)
Protocol: as §1

[15] = tested on: Enterobacter aerogenes ATCC 13048; test: Antibacterial activity (MIC), Enterobacter aerogenes ATCC 13048; format: cell-based; conditions: Klebsiella aerogenes, ATCC13048; Enterobacter aerogenes ATCC 13048, Gram -; read-out: Minimum inhibitory concentration (MIC)
Protocol: as §1

infection = test: Protective effects against infection (Experiments 3 and 4); format: in vivo, ddY male mice; conditions: result in words
Protocol: as §2, §3, §4

[16] = tested on: Morganella morganii IFO 3848; test: Antibacterial activity (MIC), Morganella morganii IFO 3848; format: cell-based; conditions: Morganella morganii, IFO3848, Morganella morganii IFO 3848, Gram -; read-out: Minimum inhibitory concentration (MIC)
Protocol: as §1

[17] = tested on: Klebsiella pneumoniae PCI-602; test: Antibacterial activity (MIC), Klebsiella pneumoniae PCI-602; format: cell-based; conditions: PCI602; Klebsiella pneumoniae PCI-602, Gram -; read-out: Minimum inhibitory concentration (MIC)
Protocol: as §1

[18] = Acute toxicity (LD50) (Experiment 6); conditions: mouse, in vivo; oral, mice fasted 18 hours, observed for a week
Protocol: (§5) The compound (O) or (P) of the present invention was suspended in sterilized distilled water to prepare a suspension. The suspension was orally adminstered to ddY male mice (5 weeks age, weighing 20 to 25 g, 5 mice in each group), which had been fasted for 18 hours.

[19] = tested on: Salmonella typhimurium IID 971; test: Antibacterial activity (MIC), Salmonella typhimurium IID 971; format: cell-based; conditions: Salmonella enterica; Salmonella typhimurium IID 971, Gram -; read-out: Minimum inhibitory concentration (MIC)
Protocol: as §1

Proteus vulgaris OX-19 = test: Antibacterial activity (MIC), Proteus vulgaris OX-19; format: cell-based; conditions: OX19; Proteus vulgaris OX-19, Gram -; read-out: Minimum inhibitory concentration (MIC)
Protocol: as §1

[20] = tested on: Streptococcus faecalis IID 682; test: Antibacterial activity (MIC), Streptococcus faecalis IID 682; format: cell-based; conditions: Enterococcus faecalis, IID682, Streptococcus faecalis IID 682, Gram +; read-out: Minimum inhibitory concentration (MIC)
Protocol: as §1

[21] = Low toxicity (Experiments 5 and 6); format: in vivo, ddY male mice; conditions: result in words
Protocol: The compound (A) or (J) of the present invention was suspended in 1% (w/v) aqueous gum arabic to prepare a suspension in concentration of 100 mg/ml. The suspension was orally administered to ddY male mice (5 weeks age, weighing 20 to 25 g, 5 mice in each group), which had been fasted for 18 hours, at a rate of 2000 mg/kg body weight of the compound (A) or (J).
as §5

[22] = tested on: Proteus mirabilis IFO 3849; test: Antibacterial activity (MIC), Proteus mirabilis IFO 3849; format: cell-based; conditions: IFO3849; Proteus mirabilis IFO 3849, Gram -; read-out: Minimum inhibitory concentration (MIC)
Protocol: as §1

With CC1CN(c2c(F)cc3c(=O)c(C(=O)O)c4scc5n4c3c2N(C)C5)CCN1C (stereo not drawn) [Compound (O), 9,1-(Methylimino)methano-7-fluoro-8-(3,4-dimethyl-1-piperazinyl)-5-oxo-5H-thiazolo[3,2-a]-quinoline-4-carboxylic acid] the MIC (Enterobacter cloacae 963) was 0.1 µg/mL (≈ 0.24 µM), the ED50 [1] was 9.4 mg/kg and the MIC [2] was 1.56 µg/mL (≈ 3.75 µM). For the same compound, the MIC [3] was 0.39 µg/mL (≈ 0.936 µM), the MIC [4] was 0.78 µg/mL (≈ 1.87 µM) and the MIC (Escherichia coli KC-14) was 0.05 µg/mL (≈ 0.12 µM). The ED50 [5] was 2.8 mg/kg, the MIC [6] was 0.025 µg/mL (≈ 0.06 µM) and the MIC [7] was 0.025 µg/mL (≈ 0.06 µM). For the same compound, the MIC [8] was 0.39 µg/mL (≈ 0.936 µM), the MIC [9] was 0.0125 µg/mL (≈ 0.03 µM) and the MIC (Shigella sonnei EW-33) was 0.05 µg/mL (≈ 0.12 µM). The MIC [10] was 0.025 µg/mL (≈ 0.06 µM), the MIC [11] was 0.05 µg/mL (≈ 0.12 µM) and the MIC [12] was 0.39 µg/mL (≈ 0.936 µM). For the same compound, the MIC [13] was 0.78 µg/mL (≈ 1.87 µM), the MIC [14] was 0.05 µg/mL (≈ 0.12 µM) and the MIC [15] was 0.1 µg/mL (≈ 0.24 µM). The “protective effects against infection” value (infection) was “excellent protective effects against infection”, the MIC [16] was 0.2 µg/mL (≈ 0.48 µM) and the MIC [17] was 0.006 µg/mL (≈ 0.0144 µM). For the same compound, the LD50 at 168 h [18] was 1410 mg/kg, the MIC [19] was 0.2 µg/mL (≈ 0.48 µM) and the MIC (Proteus vulgaris OX-19) was 0.025 µg/mL (≈ 0.06 µM). For the same compound, the MIC [20] was 0.1 µg/mL (≈ 0.24 µM), the toxicity [21] was “low toxicity” and the MIC [22] was 0.39 µg/mL (≈ 0.936 µM).
